# Results reported in patent US20240366594A1, “Small Molecule Inhibitors of Formation of Neutrophil-Derived Extracellular Traps (NETosis) and Uses Thereof” (The Brigham and Women's Hospital, Inc., priority 2021, published 2024).
# Experiments:
# human neutrophils = experiment: Immunoblot of PMA-treated human neutrophils (cell death markers, histone H3 acetylation and citrullination); format: cell-based; settings: for PMA-induced gasdermin D (GSDMD) cleavage: 1 μM PMA; for PMA-induced gasdermin D (GSDMD) cleavage / activation of apoptosis or necroptosis: immunoblot FIG. 1E; for activation of apoptosis or necroptosis: PMA-treated cells exposed to drug; for H3 citrullination: compared with cells treated with PMA only
# poly(I:C)-treated mice = experiment: Poly(I:C) pulmonary NET induction, mouse model of RNA viral lung infection; format: in vivo; settings: for NET induction (CitH3 and MPO-DNA complexes in BALF and lung tissue): ELISA, FIGS. 2E-2H; for neutrophils in the BALF and in the lung: compared with poly(I:C) only, FIGS. 6D-6F; for neutrophil levels in the blood: cytofluorimetry, FIGS. 6B and 6C; for morbidity, measured as temperature drop / lung permeability (albumin content in BALF) / lung functionality (airway hyperreactivity to methacholine): ricolinostat 30 mg/kg/dose or GSK484 25 mg/kg/dose i.p., vs poly(I:C) only; for morbidity, measured as temperature drop: FIG. 2B; for lung permeability (albumin content in BALF): FIG. 2C; for lung functionality (airway hyperreactivity to methacholine): FIG. 2D
# Method: Mice were intratracheally treated with 2.5 mg/kg poly(I:C) or saline daily for 4 days and euthanized 18 h post the last poly(I:C) instillation. Ricolinostat (30 mg/kg/dose) or GSK484 (25/mg/kg/dose) was administered intraperitoneally at day 2, day 4, and 3 h before the endpoint. • (B) Body temperature measurements at the endpoint. • (C) Lung permeability was measured as albumin content level in the BALF (n=5). • (D) Measure of airway hyperreactivity (AHR) in the indicated groups in response to increasing concentration of methacholine. RI, responsiveness index. • (E-H) CitH3 and MPO-DNA levels were analyzed by ELISA in BALFs (E, F) and in lungs (G, H) of mice treated as indicated. The saline group represents mice that received saline instead of poly(I:C). NT group represents mice that were challenged with poly(I:C) without receiving any drug. Statistics were calculated using one-way ANOVA (B, C, E-H) and two-way ANOVA with Tukey's analysis (D) (*p<0.05; **p<0.01; ***p<0.001; ****p<0.0001. n.s., not significant). n=10 (B, D) and 15 (E-H) for each group except for the GSK484-treated group (n=5). Gray stars represent comparison of all experimental groups with the saline-treated control. Black stars represent comparison between drug-treated groups and mice treated with poly(I:C) alone. Violin plots represent median (dashed line) with quartiles (dotted line). See also FIGS. 6A-F.
# Nuclei are stained with DAPI (blue), and anti-neutrophils antibody (red). Scale bar=100 μm. • B-F) Neutrophils numbers and percentage were calculated in blood (B, C), BALFs (D, E), and lung tissues (F) of mice challenged, or not, with poly(I:C). The saline group represents mice that received saline instead of poly (I:C). NT group represent mice that were challenged with poly (I:C) without receiving any drug. Ricolinostat (30 mg/kg/dose) or GSK484 (25 mg/kg/dose) were administered intraperitoneally at day 2, day 4 and 3 h prior the endpoint. Violin plots represent median (dashed line) with quartiles (dotted line). Statistics were calculated using One-way ANOVA (*P<0.05; **P<0.01; ***P<0.001; ****P<0.0001; n.s., not significant). Grey stars represent comparison of all experimental groups with the saline control. Black stars represent comparison of drug treated groups with NT group.
# NETosis was measured in bronco-alveolar lavage fluid or lung tissue homogenates as quantity of citrullinated histone H3 with Citrullinated histone H3 ELISA kit (Cayman) and as quantity of myeloperoxidase (MPO)-DNA complexes by using a modified Cell Death Detection ELISA (Roche). Briefly, anti-myeloperoxidase antibody (ThermoFisher) was used to coat a high-binding 96 multi-well plate overnight at 4° C. Following a 1 h blocking with 2% BSA/PBS solution, samples were added for an overnight incubation at 4° C. Finally, DNA was detected with Cell Death Detection kit according to manufacture instruction. Absorbance was measured at 405 nm and MPO-DNA complex levels were quantified as normalized relative to saline.
# 6-8 weeks-old female mice were treated daily with 2.5 mg/kg of poly (I:C) for 4 days and euthanized 18 hours post the last poly(I:C) intra-tracheal instillation, as previously described (Broggi et al., 2020). Temperatures were monitored with a rectal probe. NETosis was measured in bronco-alveolar lavage fluid and lung homogenates as quantity of citrullinated histone H3 and quantity of MPO-DNA complexes. Ricolinostat (30 mg/kg/dose) and GSK484 (25 mg/kg/dose) were administered intraperitoneally at day 2, day 4 and 3 hours prior the end point.
SMILES,PMA-induced gasdermin D (GSDMD) cleavage (human neutrophils),activation of apoptosis or necroptosis (human neutrophils),H3 citrullination (human neutrophils; FIGS. 1E and 1F),NET induction (CitH3 and MPO-DNA complexes in BALF and lung tissue) (poly(I:C)-treated mice),neutrophils in the BALF and in the lung (poly(I:C)-treated mice),neutrophil levels in the blood (poly(I:C)-treated mice),"morbidity, measured as temperature drop (poly(I:C)-treated mice)",lung permeability (albumin content in BALF) (poly(I:C)-treated mice),lung functionality (airway hyperreactivity to methacholine) (poly(I:C)-treated mice),"histone H3 acetylation (human neutrophils; untreated as well as PMA-treated cells, FIGS. 1E and 1F)",activity compared with GSK484 in all the conditions tested (poly(I:C)-treated mice; outcompeted i.e. increased survival of neutrophils in the BALF)
COc1cc(C(=O)N2CC[C@@H](O)[C@@H](N)C2)cc2nc(-c3cc4ccccc4n3CC3CC3)n(C)c12 [GSK484],not altered,excluded the activation of apoptosis or necroptosis,completely abrogated,abrogated,trend of accumulation,did not change significantly,significantly reduced,significantly preserved,significantly preserved,,
O=C(CCCCCCNC(=O)c1cnc(N(c2ccccc2)c2ccccc2)nc1)NO [ricolinostat],not altered,excluded the activation of apoptosis or necroptosis,significantly decreased,abrogated,trend of accumulation,did not change significantly,significantly reduced,significantly preserved,significantly preserved,boosted,"phenocopied, and in some cases outcompeted"
